Results on 50 compounds are retold here after publication PMC9995496, “A screen for MeCP2-TBL1 interaction inhibitors using a luminescence-based assay” (Scientific Reports, 2023).

The first assay deals with T1, MeCP2-TBL1 interaction (MeCP2-SmBiT / TBL1-LgBiT) (Mus musculus, UniProt Q9QXE7).
T1 construct: expressed in transfected cells; crude lysate used as a cell-free assay
T1 sequence (Q9QXE7 166-527): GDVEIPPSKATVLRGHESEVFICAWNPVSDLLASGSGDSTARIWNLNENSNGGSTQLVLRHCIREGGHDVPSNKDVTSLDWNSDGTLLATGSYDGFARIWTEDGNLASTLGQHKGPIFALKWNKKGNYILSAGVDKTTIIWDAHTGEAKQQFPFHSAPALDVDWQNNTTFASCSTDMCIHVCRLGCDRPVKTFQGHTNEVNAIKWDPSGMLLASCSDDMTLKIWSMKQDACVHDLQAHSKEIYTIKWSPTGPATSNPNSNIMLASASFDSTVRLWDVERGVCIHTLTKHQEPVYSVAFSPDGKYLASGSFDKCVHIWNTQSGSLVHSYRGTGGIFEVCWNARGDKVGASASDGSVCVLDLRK
Description: MeCP2-TBL1 NanoLuc luciferase complementation assay (cell-free, extracts of transfected HEK293 cells). The assay is classed as binding, human. To be noted: primary screen of Asinex library, single well per compound. The source says:
To facilitate the discovery of inhibitors of the interaction between MeCP2 and TBL1/TBLR1, we set out to devise a simple and scalable biochemical assay for measuring the interaction between these two proteins. We initially explored the possibility of screening compound libraries using a previously established fluorescence polarization assay that depends on purified recombinant TBL1/TBLR1[26]. […] The resulting luminescence signal depends on the affinity between the two interacting proteins of interest (Fig. 1A). This method was originally developed to allow for the interrogation of protein–protein interactions in vivo. However, in order to facilitate large scale screening of chemical libraries, we adapted the assay for use as a cell-free system.
We fused the large N-terminal fragment of NanoLuc (LgBiT) to the C-terminus of the WD repeat domains of both TBL1 and TBLR1, and the small C-terminal fragment of NanoLuc (SmBiT) to the C-terminus of the C-terminal half of MeCP2 (Fig. 1B and C). This region of MeCP2 contains the NID (NCoR interaction domain)—the motif in MeCP2 that binds to TBL1/TBLR1.
The AgeI-NotI restriction fragment (encoding EGFP) was then replaced with a codon optimized SmBiT sequence to yield the MeCP2-SmBiT expression plasmid. The TBL1-LgBiT expression vector was derived from a TBL1-mCherry plasmid[25] by replacing the AgeI-NotI restriction fragment (encoding mCherry) with a codon optimized LgBiT sequence. SmBiT-PRKACA and LgBiT-PRKAR2A plasmids are commercially available (Promega, N203 and N204).
Cells were harvested after 24 h and cell pellets were stored at − 80 °C.
In the screens described here, the lysate obtained from a single 15 cm plate was used for 2.5 384-well assay plates. NanoLuc substrate (furimazine) (Promega, N1110) was diluted 1000-fold in passive lysis buffer (Promega, E1941) and added 1:1 to the lysate. Screening libraries were purchased from Asinex[40] and ApexBio (FDA-approved Drug Library, L1021). Compounds were dispensed using an Echo acoustic dispenser and tested at a final concentration of 20 µM in a total assay volume of 20 μl in 384-well plate format. DMSO was added to each well at a final concentration of 0.2% (v/v) and wells containing only DMSO were used as negative control. After 30 min incubation at room temperature, luminescence was measured on a Tecan M1000 multi-mode plate reader. Raw luminescence reads from each well on each plate were normalized to the median luminescence signal for that plate. In the ApexBio screen, the scaled and normalized PKA signal for each compound was subtracted from the MeCP2-TBL1 signal for the same compound. After plate normalization the robust SSMD (SSMD*) was calculated as described elsewhere. A threshold of SSMD* ≥ 3 was applied for discerning primary hits.
Assays were performed as described above except instead of a single concentration, a threefold serial dilution ranging from 60 to 0.03 μM was tested in triplicate for each of the compounds. Half-maximal inhibitory concentrations were calculated using global nonlinear regression by fitting the response data sets of all compounds simultaneously with a four-parameter logistic curve of log inhibitor concentration versus normalized luminescence using GraphPad Prism. During fitting, the maximum and minimum curve values were shared between the data sets.
As to `NC(=O)c1cccc(-c2nccnc2C2CCCN(C(=O)COc3ccc(F)cc3)C2)c1` (centres unmarked) [BDD_27905103], the Inhibition percent was -2.79. The same measure, in the same setting: to `Cc1nn(C)cc1C(=O)N1CCCCC1c1ncccc1C(=O)NCc1ccccc1` (centres unmarked) [BDE_24469941] belongs -0.10. Same read-out and setting: the same measure for `COCCNC(=O)CN1CCCC1c1nc(C)c2c(n1)N(Cc1ccccc1)C(=O)CC2` (centres unmarked) [BDE_24735834]: -1.63; for `CNc1nc(C2CCCNC2)nc2c1CCN(C(=O)C1(Oc3ccccc3)CCCCC1)C2` (centres unmarked) [BDE_26713143]: -1.93.

The same assay, now with this note: primary screen of the Asinex library, sheet "Sargen output Asinex library", one well per compound.
In the case of `CC(=O)Nc1cccc([C@@H]2CN(Cc3ccc4c(c3)n(C)c(=O)n4C)C[C@]23CCCCC(=O)N3)c1` [BDD_25153608], the Inhibition percent is recorded as -1.53%. The same measure, in the same setting: to `Cc1cc(-c2cnc(C(C)(C)C)nc2C2CCN(Cc3ccc(N4CCCC4)cc3)CC2)on1` [BDD_25871827] belongs 3.48%. Same read-out and setting: the same measure for `Cn1c(=O)c2ccc(C3CCCCN3C(=O)c3cc[nH]n3)nc2n(Cc2ccccc2)c1=O` (centres unmarked) [BDD_26868519]: 4.40%; for `Cn1cc(CCC(=O)N2CCCC2c2ccc(CNC3Cc4ccccc4C3)cn2)c2ccccc21` (centres unmarked) [BDD_27352850]: -1.33%. With `CCOc1ccccc1NC(=O)N(C(C)c1ccccc1)C1CCn2c1nc1ccccc1c2=O` (centres unmarked) [BDD_27845157], the Inhibition percent was -3.22%. Same read-out and setting: the same measure for `COc1cccc(Cc2cccc(C3CCCN3C(=O)Cc3ccncc3)n2)c1` (centres unmarked) [BDD_27854270]: -2.15%; for `NC(=O)c1cccc(-c2nccnc2C2CCCN(CCCc3ccccc3)C2)c1` (centres unmarked) [BDD_27892119]: -1.40%; for `CC(=O)N(C)Cc1cc(N(C)C)nc(C2CCCN2C(=O)Cc2ccc3c(c2)CCCC3)n1` (centres unmarked) [BDE_23426204]: -14.24%. The same measure, in the same setting: the same measure for `Cc1ccc(CC(=O)N2CCCC(c3ncccc3C(=O)NCc3ccccc3)C2)cc1C` (centres unmarked) [BDE_24458967]: -0.34%; for `O=C(NCCc1ccc(Cl)cc1)C1(Cc2cc(-c3ccccc3)no2)CCCO1` (centres unmarked) [BDE_24757019]: 8.09%; for `CC1CCN(C(=O)CN2CCC(C3CCCCN(CCc4ccccc4)C3=O)CC2)CC1` (centres unmarked) [BDE_25214814]: -2.53%.

Regarding `CC(=O)N1CCc2nc(C3CCCN(C)C3)nc(NCCCc3ccccc3Cl)c2C1` (centres unmarked) [BDE_25356631], the Inhibition percent was 2.24%.

Regarding `CC(=O)N1CCC(c2nc3c(c(NCCOc4cccc(C)c4C)n2)CN(C)CC3)CC1` [BDE_25367865], the Inhibition percent is given as 1.06%. Still for that read-out and setting: the same measure for `CC(=O)N1CCc2nc(C3CCN(C)CC3)nc(NCCCN(C)c3ccccc3)c2C1` [BDE_25368265]: -2.49%; for `O=C(Cc1c[nH]c2ccccc12)N1CCC2(CC=CCN(Cc3ccc(F)cc3)C2=O)CC1` [BDE_25848651]: -0.14%.

For `COCCN1CC=CCC2(CCN(CC(=O)N(Cc3ccccc3)C(C)C)CC2)C1=O` [BDE_25851451], the Inhibition percent is recorded as -2.37%.

`Cc1nc(C2CCCN2C(=O)c2ccncc2)nc2c1CCC(=O)N2CCc1ccccc1` (centres unmarked) [BDE_26909882]: the Inhibition percent is given as -1.75%.

`O=C(c1ccccn1)N1CCCC1c1cc(CCOc2cccc(C(F)(F)F)c2)[nH]n1` (centres unmarked) [BDE_27113075]: the Inhibition percent is given as -1.96%. In the case of `CN(CCC(=O)N1CCCC1c1cncc(Cc2cccc(Cl)c2)n1)Cc1cccnc1` (centres unmarked) [BDE_27213557], the Inhibition percent is listed as -2.00%.

As to `O=C(CCCNc1ncccn1)N1CCCC1c1cncc(Cc2cccc(Cl)c2)n1` (centres unmarked) [BDE_27217604], the Inhibition percent is recorded as -3.79%. On to `Cc1cc(C2CCCN(Cc3ccc(-c4ccccc4C(=O)O)o3)C2)ccn1` (centres unmarked) [BDE_30686588], for which the Inhibition percent was 6.28%. Still for that read-out and setting: to `Cc1nccc(C2CCCN2Cc2ccc(-c3ccccc3C(=O)O)cc2)n1` (centres unmarked) [BDE_30687639] belongs -0.80%.

The assay is the same for the next values; noted with them: primary screen of the Asinex library, sheet "Sargen output Asinex library", one well per compound, Batch Ref. 1.
In the case of `Cc1cccc(Nc2ccc(C3CCCN3C(=O)COc3ccc4c(c3)OCCO4)nc2)n1` (centres unmarked) [BDD_25671481], the Inhibition percent worked out at 3.48%. Still for that read-out and setting: to `COc1ccccc1CNC(=O)c1cn(C)nc1CC1CCN(C(=O)c2cccnc2)CC1` [BDD_26909786] belongs -3.87%; to `Cc1nc2c(c(Nc3ccccn3)n1)CCN(S(=O)(=O)c1cccc(C(F)(F)F)c1)CC2` [BDD_27755359], 6.69%. On to `CC(C)(C)OC(=O)Nc1cc(-c2c[nH]nc2C2CCCCN2C(=O)OC(C)(C)C)ccn1` (centres unmarked) [BDD_27845058], for which the Inhibition percent is recorded as 10.59%. On the same count and under the same terms, to `O=C(c1ccccn1)N1CCCC1c1cccc(Cc2ccc(C(F)(F)F)cc2)n1` (centres unmarked) [BDD_27852665] belongs -2.94%; to `COc1ccccc1Cc1cccc(C2CCCN2C(=O)Cc2c[nH]c3ccccc23)n1` (centres unmarked) [BDD_27856210], 9.99%. On the same count and under the same terms, to `COc1ccc(CCC(=O)N2CCCC(c3cncc(-c4cccc(OC)c4)n3)C2)cc1` (centres unmarked) [BDD_27924033] belongs 11.34%; to `Cc1cc(Nc2cccc(C3CCCN(C(=O)C4CCCCN4C(=O)OC(C)(C)C)C3)n2)[nH]n1` (centres unmarked) [BDD_30366487], 3.82%.

On to `CNCc1cc(NC)nc(C2CCCN2C(=O)c2cccc(Oc3ccccc3)c2)n1` (centres unmarked) [BDE_23425118], for which the Inhibition percent is reported as -0.41%.

As for `CN(Cc1cc(N(C)C)nc(C2CCCCN2)n1)C(=O)c1ccccc1-c1ccccc1` (centres unmarked) [BDE_23459438], the Inhibition percent is -3.75%. For the compound `O=C(NCc1ccccc1)c1cccnc1C1CCCCN1CC(=O)N1CCNC1=O` (centres unmarked) [BDE_24470675], the Inhibition percent is listed as -2.87%.

With `Cc1ccccc1OCCN1C(=O)CCc2c(C)nc(CN(C)C(=O)C3CCCC3)nc21` [BDE_24687458], the Inhibition percent is -1.66%. On the same count and under the same terms, the same measure for `Cc1nnc(N2CCC(C3CC=CCN(Cc4ccc(F)cc4)C3=O)CC2)c2ccccc12` (centres unmarked) [BDE_24723072]: -0.22%; for `Cc1nc(C2CCN(C(=O)C3CCCC3)CC2)nc2c1CCC(=O)N2CCc1ccccc1` [BDE_24748773]: -0.38%.

For the compound `Cc1c(C(=O)N2CCC(C3(C)CCCCN(CCc4ccccc4)C3=O)CC2)cnn1C` (centres unmarked) [BDE_25215150], the Inhibition percent was -0.77%.

Take `COCCc1ncc(CN2CCCC2c2cc(Cc3cccc(OC)c3)cc(C)n2)cn1` (centres unmarked) [BDE_25403133]: the Inhibition percent is reported as -4.16%.

For `COc1ccc(Cc2ccc(C3CCCN3C(=O)CCn3ncc4ccccc43)nc2)cc1` (centres unmarked) [BDE_25650039], the Inhibition percent was found to be 3.10%. On the same count and under the same terms, to `Nc1nc(-c2ccccc2)nc2nc(C3CCCN(C(=O)COc4ccccc4)C3)ccc12` (centres unmarked) [BDE_26160293] belongs -0.81%; to `Cc1cc(CCCC(=O)N2CCCC2c2cccc(Nc3nncs3)n2)ccc1F` (centres unmarked) [BDE_26594959], 1.13%. On the same count and under the same terms, the same measure for `CN(C)c1ncc(-c2cccc(F)c2)c(C2CCCCN2C(=O)COc2ccccc2)n1` (centres unmarked) [BDE_26725534]: 34.22%; for `COc1cccc(CC(=O)N2CCC(c3nc(N(C)C)ncc3-c3ccccc3F)CC2)c1` [BDE_26728718]: 20.50%. The same measure, in the same setting: to `Cc1nc(C2CCN(C(=O)c3cccnc3)CC2)nc2c1CCCN2CCc1ccccc1` [BDE_27576245] belongs -0.64%.

Take `Cc1nc2c(c(Nc3ccccn3)n1)CCN(C(=O)C1CCCCN1C(=O)OC(C)(C)C)C2` (centres unmarked) [BDE_27755327]: the Inhibition percent was -1.68%. Still for that read-out and setting: to `O=C(O)c1ccccc1-c1ccc(CN2CCCC2c2ccncn2)cc1` (centres unmarked) [BDE_30687637] belongs -2.12%.
